# What was measured:
# herbaceous plants = assay: Spraying of herbicide solutions on 50×50 cm plots of land with herbaceous plants; deterioration of the vegetation observed; assay type: in vivo
# Method: The following tests were carried out on plots of land of 50×50 cm on which herbaceous plants occur. Each of the solutions tested is sprayed over a plot which is assigned to it.
# The time necessary for the complete destruction of the vegetation was compared, on similar plots planted with herbaceous plants, with a herbicide alone, on the one hand, and the same herbicide to which has been added a glycerol ether: 3-methyloxypropane-1,2-diol, on the other hand.
# A solution comprising 6 g/l of glyphosate (in the acid form) was sprayed over plot 1 in a proportion of 36 grams to the m^2.
# A solution comprising […] and 0.9 g/l of 3-methyl-oxypropane-1,2-diol was sprayed over plot 2 in a proportion of 36 grams to the m^2.
# The following sprayings were carried out on 4 plots covered with herbaceous plants: • Plot 1: glyphosate at 6 g/l (36 g of the solution to the m^2) • Plot 2: glyphosate at 4.5 g/l (36 g of the solution to the m^2) • Plot 3: a solution of glyphosate at 1.5 g/l 3-pentyloxypropane-1,2-diol at 0.9 g/l, in a proportion of 36 g of the solution to the m^2. • Plot 4: a solution of glyphosate at […] 3-pentyloxypropane-1,2-diol at 0.9 g/l, in a proportion of 36 g of the solution to the m^2.
# Lucilia caesar = assay: Spraying of insecticide solution on 30 flies in a cage; degree of mortality; assay type: in vivo; settings: 1.8 g of solution; for degree of mortality: diflubenzuron 39.0 mg/l + glycerol ether 47.0 mg/l (cage 2)
# Method: 30 flies of the species Lucilia caesar were introduced into each of the cages made with a cubic frame from lengths of wood and mosquito screens. One of the faces was pierced with a hole through which a sprayer for the test solution is introduced: • in cage 1, 1.8 g of a solution comprising 39.0 mg/l of diflubenzuron were sprayed • in cage 2, 1.8 g of a solution comprising 39.0 mg/l of diflubenzuron and 47.0 mg/l of 3-isopropyloxypropane-1,2-diol were sprayed.
# Sitobion avenae = assay: Spraying of insecticide solution on 25 aphids in a Petri dish; degree of mortality; assay type: in vivo; settings: read-out: degree of mortality
# Method: The aphids of the species Sitobion avenae used in the following examples were supplied by the Université de Picardie d'Amiens [University of Picardy of Amiens], laboratoire de biologie des plantes et contrôle des insectes ravageurs [Plant Biology and Insect Pest Control Laboratory], EA3900, 33, rue Saint Leu, Amiens 80000.
# 25 aphids of the species Sitobion avenae were introduced into a Petri dish into which the test solution was sprayed: • in dish 1, 1.8 g of a solution comprising 39.0 mg/l of diflubenzuron were sprayed; • in dish 2, 1.8 g of a solution comprising 39.0 mg/l of diflubezuron and 47.0 mg/l of 3-isopropyloxypropane-1,2-diol were sprayed.
# Candida albicans = Candida albicans on agar in a Petri dish with impregnated blotting paper disks; inhibition regions observed; assay type: cell-based
# Description: In the following examples, the Candida albicans test strain used is sold under the reference ATCC 10231, Collection Institut Pasteur.
# A Candida albicans strain was inoculated on agar in a Petri dish. Disks of blotting paper impregnated with the following solutions were subsequently deposited at its surface:
# • disk 1 is impregnated with a solution comprising […] • disk 2 is impregnated with a solution comprising 0.5 g/l of mancozeb • disk 3 is impregnated with a solution comprising 0.2 g/l of mancozeb • disk 4 is impregnated with a solution comprising 0.2 g/l of mancozeb and 0.1 g/l of 3-butyloxypropane-1,2-diol.
# [1] = glyphosate 1.5 g/l + glycerol ether 0.9 g/l, 36 g of solution per m^2
# [2] = glyphosate 3 g/l + glycerol ether 0.9 g/l, 36 g of solution per m^2
# [3] = glyphosate 6 g/l + glycerol ether 0.9 g/l, 36 g of solution per m^2 (plot 2)
# [4] = glyphosate 6 g/l alone, 36 g of solution per m^2 (plot 1)
Compound,state of plot after 30 days (herbaceous plants; [1]),state of plot after 30 days (herbaceous plants; [2]),time after which deterioration began (herbaceous plants; [3]) [days],time after which deterioration was complete (herbaceous plants; [3]) [days],also measured
"CC(C)CCCCCCOCC(O)CO (centres unmarked) [3-isononyloxypropane-1,2-diol]",unaffected,completely deteriorated,–,–,–
"COCC(O)COC [1,3-dimethyloxypropan-2-ol]",–,–,4,15,–
"O=C(NC(=O)c1c(F)cccc1F)Nc1ccc(Cl)cc1 [diflubenzuron, reference compound]",–,–,–,–,"mortality at 39 µg/mL (Lucilia caesar; Lucilia caesar, diflubenzuron 39.0 mg/l alone (cage 1)): 29%; mortality at 39 µg/mL (Sitobion avenae): 21%"
"CCCCC(CC)COCC(O)CO (centres unmarked) [3-(2-ethylhexyloxy)propane-1,2-diol]",unaffected,completely deteriorated,3,11,inhibition region of growth around the disk (Candida albicans; mancozeb 0.2 g/l + glycerol ether 0.05 g/l (disk 4)): circular regions of inhibition of the growth; degree of mortality (Lucilia caesar): 56%
mancozeb [reference compound],–,–,–,–,inhibition region of growth around the disk (Candida albicans; mancozeb 0.2 g/l alone (disk 3)): absence was observed of an inhibition region; inhibition region of growth around the disk (Candida albicans; mancozeb 0.5 g/l alone (disk 2)): absence was observed of an inhibition region; inhibition region of growth around the disk (Candida albicans; mancozeb 0.8 g/l alone (disk 1)): circular regions of inhibition of the growth
"COCC(O)CO (centres unmarked) [3-methyloxypropane-1,2-diol]",–,–,4,13,–
"CCOCC(O)CO (centres unmarked) [3-ethyloxypropane-1,2-diol]",–,–,3,11,–
"CCCCCCCCCCOCC(O)CO (centres unmarked) [3-decyloxypropane-1,2-diol]",–,–,4,11,–
"CCCCOCC(O)CO (centres unmarked) [3-butyloxypropane-1,2-diol]",unaffected,completely deteriorated,3,10,inhibition region of growth around the disk (Candida albicans; mancozeb 0.2 g/l + glycerol ether 0.1 g/l (disk 4)): circular regions of inhibition of the growth
"CCCCCOCC(O)CO (centres unmarked) [3-pentyloxypropane-1,2-diol]",completely deteriorated,–,3,10,"state of plot after 30 days (herbaceous plants; glyphosate 0.75 + glycerol ether 0.9 g/l, 36 g of solution per m^2): unaffected; inhibition region of growth around the disk (Candida albicans; mancozeb 0.2 g/l + glycerol ether 0.25 g/l (disk 4)): circular regions of inhibition of the growth"
"O=C(O)CNCP(=O)(O)O [glyphosate, reference compound]",–,–,–,–,"state of plot after 30 days (herbaceous plants; glyphosate 4.5 g/l alone, 36 g of solution per m^2 (plot 2)): unaffected; state of plot after 30 days (herbaceous plants; [4]): completely deteriorated; time after which deterioration began (herbaceous plants; [4]): 8 days; time after which deterioration was complete (herbaceous plants; [4]): 18 days"
"CCCCCCOCC(O)CO (centres unmarked) [3-hexyloxypropane-1,2-diol]",unaffected,completely deteriorated,3,10,–
Cc1nc(N(C)C)nc(OC(=O)N(C)C)c1C [pirimicarb],–,–,–,–,mortality at 78.1 µg/mL (Sitobion avenae): 16%
"CC(C)OCC(O)CO (centres unmarked) [3-isopropyloxypropane-1,2-diol]",unaffected,completely deteriorated,3,12,degree of mortality (Lucilia caesar): 64%
"CCOCC(O)COCC [1,3-diethyloxypropan-2-ol]",–,–,4,13,–
